From patent US9884063B2, “Amido-substituted azole compounds” (Bayer Pharma Aktiengesellschaft, priority 2014, dated 2018)

System: wildtype Wnt signaling cascade
Experiment: HEK293 TOP Assay (Super TopFlash luciferase reporter, Wnt-3a stimulated)
Type: cell-based
Conditions: Homo sapiens, HEK293, 16 h, HEK293 TOP reporter cell line, Wnt-3a at EC50, 16 hours incubation, compound dilution series 50 μM to 15 nM
Protocol: In order to discover and characterize small molecules which inhibit the wildtype Wnt pathway, a cellular reporter assay was employed. The corresponding assay cell was generated by transfection of the mammalian cell line HEK293 (ATCC, #CRL-1573) with the Super TopFlash vector (Morin, Science 275, 1997, 1787-1790; Molenaar et al., Cell 86 (3), 1996, 391-399). The HEK293 cell line is cultivated at 37° C. and 5% CO2 in DMEM (Life Technologies, #41965-039), supplemented with 2 mM glutamine, 20 mM HEPES, 1.4 mM pyruvate, 0.15% Na-bicarbonate and 10% foetal bovine serum (GIBCO, #10270). Stable transfectants were generated by selection with 300 μg/ml Hygromycin.
In preparation of the assay, the two cell lines were plated 24 hrs before beginning the test at 10000 cells per well in a 384 micro titre plate (MTP) in 30 μl growth medium. […] The recombinant human Wnt-3a was thereby applied between 2500 and 5 ng/ml in two-fold dilution steps.
Selective inhibitory activity for small molecules on the wildtype Wnt pathway was determined after parallel incubation of both (TOP and FOP) HEK293 reporter cell lines with a compound dilution series from 50 μM to 15 nM in steps of 3.16-fold dilutions in CAFTY buffer (130 mM sodium chloride, 5 mM potassium chloride, 20 mM HEPES, 1 mM magnesium chloride, 5 mM sodium bicarbonate, pH 7.4) containing 2 mM Ca^2+ and 0.01% BSA.
The compounds were thereby serially prediluted in 100% DMSO and thereafter 50 fold into the CAFTY compound dilution buffer (described above).

Row | Structure (SMILES) | IC50
1 | O=C(Nc1ccc(NC(=O)c2[nH]cnc2C(=O)NCCN2CCNC2=O)cc1)c1ccc(F)cc1Cl [Example 399, N^5-{4-[(2-chloro-4-fluorobenzoyl)amino]phenyl}-N^4-[2-(2-oxoimidazolidin-1-yl)ethyl]-1H-imidazole-4,5-dicarboxamide] | 1.2 µM
2 | CNC(=O)c1nc[nH]c1C(=O)Nc1ccc(NC(=O)c2ccc(OC)c(C)c2)cc1 [Example 355, N^5-{4-[(4-methoxy-3-methylbenzoyl)amino]phenyl}-N^4-methyl-1H-imidazole-4,5-dicarboxamide] | 25 µM
3 | CNC(=O)c1nc[nH]c1C(=O)Nc1ccc(NC(=O)c2cccc(N(C)C)c2)cc1 [Example 317, N^5-(4-{[3-(dimethylamino)benzoyl]amino}phenyl)-N^4-methyl-1H-imidazole-4,5-dicarboxamide] | 50 µM
4 | O=C(Nc1ccc(NC(=O)c2nc[nH]c2C(=O)NC(CO)CO)cc1)c1ccc(F)cc1Cl [Example 172, N^4-{4-[(2-chloro-4-fluorobenzoyl)amino]phenyl}-N^5-(1,3-dihydroxypropan-2-yl)-1H-imidazole-4,5-dicarboxamide] | 2.25 µM
5 | COc1cc(NC(=O)c2[nH]cnc2C(=O)NCCN(C)C)ccc1NC(=O)c1ccc(F)cc1 [Example 104, N^4-[2-(dimethylamino)ethyl]-N^5-{4-[(4-fluorobenzoyl)amino]-3-methoxyphenyl}-1H-imidazole-4,5-dicarboxamide] | 7.2 µM
6 | CNC(=O)c1nc[nH]c1C(=O)Nc1ccc(NC(=O)c2cc(F)cc(F)c2F)cc1 [Example 347, N^4-methyl-N^5-{4-[(2,3,5-trifluorobenzoyl)amino]phenyl}-1H-imidazole-4,5-dicarboxamide] | 34.5 µM
7 | O=C(Nc1ccc(NC(=O)c2[nH]cnc2C(=O)NCCN2CCCC2=O)cc1)c1ccc(F)cc1Cl [Example 398, N^5-{4-[(2-chloro-4-fluorobenzoyl)amino]phenyl}-N^4-[2-(2-oxopyrrolidin-1-yl)ethyl]-1H-imidazole-4,5-dicarboxamide] | 0.71 µM
8 | CNC(=O)c1nc[nH]c1C(=O)Nc1ccc(NC(=O)c2ccc(OC)c(OC)c2Cl)cc1 [Example 348, N^5-{4-[(2-chloro-3,4-dimethoxybenzoyl)amino]phenyl}-N^4-methyl-1H-imidazole-4,5-dicarboxamide] | 7.05 µM
9 | Cc1cc(NC(=O)c2[nH]cnc2C(=O)NCCN2CCCCC2)ccc1NC(=O)c1ccc(F)cc1 [Example 93, N^5-{4-[(4-fluorobenzoyl)amino]-3-methylphenyl}-N^4-[2-(piperidin-1-yl)ethyl]-1H-imidazole-4,5-dicarboxamide] | 2.65 µM
10 | O=C(Nc1ccc(NC(=O)c2[nH]cnc2C(=O)NCCN2CCCCC2)cn1)c1ccc(F)cc1 [Example 117, N^5-{6-[(4-fluorobenzoyl)amino]pyridin-3-yl}-N^4-[2-(piperidin-1-yl)ethyl]-1H-imidazole-4,5-dicarboxamide] | 40 µM
11 | CN(C)CCNC(=O)c1nc[nH]c1C(=O)Nc1ccc(NC(=O)c2ccc(F)cc2)nc1 [Example 116, N^4-[2-(dimethylamino)ethyl]-N^5-{6-[(4-fluorobenzoyl)amino]pyridin-3-yl}-1H-imidazole-4,5-dicarboxamide] | 44 µM
12 | CNC(=O)c1nc[nH]c1C(=O)Nc1ccc(NC(=O)c2cc(F)ccc2F)cc1 [Example 318, N^5-{4-[(2,5-difluorobenzoyl)amino]phenyl}-N^4-methyl-1H-imidazole-4,5-dicarboxamide] | 1.3 µM
13 | CC1CN(CCNC(=O)c2[nH]cnc2C(=O)Nc2ccc(NC(=O)c3ccc(F)cc3Cl)cc2)CC(C)O1 (centres unmarked) [Example 301, N^4-{4-[(2-4-fluorochlorobenzoyl)amino]phenyl}-N^5-[2-(2,6-dimethylmorpholin-4-yl)ethyl]-1H-imidazole-4,5-dicarboxamide] | 1.2 µM
14 | CNC(=O)c1nc[nH]c1C(=O)Nc1ccc(NC(=O)c2ccc(Cl)c(Cl)c2)cc1 [Example 308, N^5-{4-[(3,4-dichlorobenzoyl)amino]phenyl}-N^4-methyl-1H-imidazole-4,5-dicarboxamide] | 3.35 µM
